In patent publication US4293695A, “Furonaphthyridine compounds” (Daiichi Seiyaku Co., Ltd., priority 1978, dated 1981):
In brackets after ≈: the same amount, converted by molar mass.

Tests used:
[1] = tested on: K. pneumoniae, Type 1; experiment: MIC, dilution method on plate culture (heart infusion agar); type: cell-based; details: Klebsiella pneumoniae, TYPE1, 10^6/ml bacteria, 37° C., 18 hours, read-out: Minimum Inhibitory Concentration (MIC)
Description: (§1) Thus, these compounds are very useful anti-bacterial agents. The anti-bacterial activity (in vitro) and the acute toxicity (LD50) of the compounds of this invention are shown in the following Table in comparison with known oxolinic acid.
(§2) *Determined by the standard method of Japan Society of Chemotherapy:
(§3) dilution method on plate culture (heart infusion agar culture), 10^6
(§4) /ml of bacteria were seeded and incubated at 37° C. for 18 hours.

[2] = tested on: S. aureus; experiment: as above; type: cell-based; details: Staphylococcus aureus, 10^6/ml bacteria, 37° C., 18 hours, read-out: Minimum Inhibitory Concentration (MIC)
Description: as §1, §2, §3, §4

[3] = tested on: E. coli NIHJ; experiment: as above; type: cell-based; details: Escherichia coli, 10^6/ml bacteria, 37° C., 18 hours, read-out: Minimum Inhibitory Concentration (MIC)
Description: as §1, §2, §3, §4

[4] = tested on: Ent. cloacae 12001; experiment: as above; type: cell-based; details: Enterobacter cloacae, 10^6/ml bacteria, 37° C., 18 hours, read-out: Minimum Inhibitory Concentration (MIC)
Description: as §1, §2, §3, §4

[5] = tested on: Ser. marcescens 13014; experiment: as above; type: cell-based; details: Serratia marcescens, 10^6/ml bacteria, 37° C., 18 hours, read-out: Minimum Inhibitory Concentration (MIC)
Description: as §1, §2, §3, §4

[6] = tested on: Ps. aeruginosa 2063; experiment: as above; type: cell-based; details: Pseudomonas aeruginosa, 10^6/ml bacteria, 37° C., 18 hours, read-out: Minimum Inhibitory Concentration (MIC)
Description: as §1, §2, §3, §4

[7] = tested on: Pr. mirabilis; experiment: as above; type: cell-based; details: Proteus mirabilis, 10^6/ml bacteria, 37° C., 18 hours, read-out: Minimum Inhibitory Concentration (MIC)
Description: as §1, §2, §3, §4

[8] = tested on: Pr. vulgaris; experiment: as above; type: cell-based; details: Proteus vulgaris, 10^6/ml bacteria, 37° C., 18 hours, read-out: Minimum Inhibitory Concentration (MIC)
Description: as §1, §2, §3, §4

[9] = acute toxicity (LD50); details: mouse, in vivo, iv; mice i.v.
Source text: as §1

Compound | MIC [1] [µg/mL] | MIC [2] [µg/mL] | MIC [3] [µg/mL] | MIC [4] [µg/mL] | MIC [5] [µg/mL] | MIC [6] [µg/mL] | MIC [7] [µg/mL] | MIC [8] [µg/mL] | LD50 [9] [mg/kg]
CCn1cc(C(=O)O)c(=O)c2cc3c(nc21)CCO3 [Compound Ib, 5-ethyl-8-oxo-2,3,5,8-tetrahydrofuro[3,2-b]-1,8-naphthyridine-7-carboxylicacid] | 0.8 (≈ 3.07 µM) | 3.1 (≈ 11.9 µM) | ≤ 0.2 | ≤ 0.2 | ≤ 0.2 | 6.3 (≈ 24.2 µM) | ≤ 0.2 | ≤ 0.2 | 376
CCn1cc(C(=O)O)c(=O)c2cc3occc3nc21 [Compound Ia, 5,8-dihydro-5-ethyl-8-oxofuro[3,2-b]-1,8-naphthyridine-7-carboxylic acid] | 1.6 (≈ 6.2 µM) | 3.1 (≈ 12 µM) | ≤ 0.2 | 0.4 (≈ 1.55 µM) | 0.4 (≈ 1.55 µM) | 3.1 (≈ 12 µM) | ≤ 0.2 | ≤ 0.2 | 221
CCn1cc(C(=O)O)c(=O)c2cc3c(cc21)OCO3 [Oxolinic Acid, 5-ethyl-5,8-dihydro-8-oxo-1,3-dioxolo[4,5-g]quinoline-7-carboxylic acid, reference compound] | 3.1 (≈ 11.9 µM) | 3.1 (≈ 11.9 µM) | ≤ 0.2 | 0.8 (≈ 3.06 µM) | 0.8 (≈ 3.06 µM) | 25 (≈ 95.7 µM) |  |  | 
